Experimental data from PubChem BioAssay AID2060885 (Molecular Pharmacology Branch, DTP, NCI, 2025).

Tested on: NCI-H23 complex spheroids with HUVEC/MSC, viability
Assay: Anticancer human tumor NCI-H23 cell line growth inhibition [RAS];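 further: spheroids exposed to compound for 7 days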;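 on viability, T/C: 100% = DMSO vehicle control viability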
Details: for viability, T/C: stronger effect = lower value
In short: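 Agents were tested in combination matrices in half-log decrements from a top concentration at or near clinical Cmax (10 microM if undetermined). Targets were multi-cell spheroids of tumour lines plus HUVEC and MSC stromal cells.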

`Nc1ccn(C2OC(CO)C(O)C2(F)F)c(=O)n1` (centres undefined) was tested, and the viability, T/C (compound 0.00316 µM) was 77.2% [middle of 4 runs], the viability, T/C (compound 0.01 µM) was 15.3% [middle of 4 runs] and the viability, T/C (compound 0.0316 µM) was 8.37% [middle of 4 runs]. For the same compound, the viability, T/C (compound 0.1 µM) was 7.36% [middle of 4 runs], the viability, T/C (compound 0.316 µM) was 7.15% [middle of 4 runs] and the viability, T/C (compound 1 µM) was 10.5% [middle of 4 runs]. For the same compound, the IC50 (curve of compound) was 5.35 nM [middle of 4 runs].

`O=C(c1ccc(F)c(F)c1Nc1ccc(I)cc1F)N1CC(O)([C@@H]2CCCCN2)C1` + CCn1c(-c2cc(N3CCN(C)CC3)cnc2C(C)OC)c2c3cc(ccc31)-c1csc(n1)CC(NC(=O)C1CC1C)C(=O)N1CCCC(N1)C(=O)OCC(C)(C)C2 gave an IC50 (curve of first compound, second compound 0.000949 µM) of under 3.16 nM, an IC50 (curve of first compound, second compound 0.003 µM) of under 3.16 nM and an IC50 (curve of first compound, second compound 0.00949 µM) of under 3.16 nM. For the same compound, the IC50 (curve of first compound, second compound 0.03 µM) was under 3.16 nM, the IC50 (curve of first compound, second compound 0.0949 µM) was under 3.16 nM and the IC50 (curve of first compound, second compound 0.3 µM) was under 3.16 nM. For the same compound, the viability, T/C (second compound 0.000949 µM, first compound 0.00316 µM) was 40.8%, the viability, T/C (second compound 0.000949 µM, first compound 0.01 µM) was 42.1% and the viability, T/C (second compound 0.000949 µM, first compound 0.0316 µM) was 30.3%. The viability, T/C (second compound 0.000949 µM, first compound 0.1 µM) was 27.7%, the viability, T/C (second compound 0.000949 µM, first compound 0.316 µM) was 14.7% and the viability, T/C (second compound 0.000949 µM, first compound 1 µM) was 7.09%. For the same compound, the viability, T/C (second compound 0.003 µM, first compound 0.00316 µM) was 31.5%, the viability, T/C (second compound 0.003 µM, first compound 0.01 µM) was 33.4% and the viability, T/C (second compound 0.003 µM, first compound 0.0316 µM) was 22.9%. It also gave a viability, T/C (second compound 0.003 µM, first compound 0.1 µM) of 20.1%, a viability, T/C (second compound 0.003 µM, first compound 0.316 µM) of 10.2% and a viability, T/C (second compound 0.003 µM, first compound 1 µM) of 5.97%. It also gave a viability, T/C (second compound 0.00949 µM, first compound 0.00316 µM) of 33.3%, a viability, T/C (second compound 0.00949 µM, first compound 0.01 µM) of 20.2% and a viability, T/C (second compound 0.00949 µM, first compound 0.0316 µM) of 19%. It also gave a viability, T/C (second compound 0.00949 µM, first compound 0.1 µM) of 10.2%, a viability, T/C (second compound 0.00949 µM, first compound 0.316 µM) of 5.94% and a viability, T/C (second compound 0.00949 µM, first compound 1 µM) of 5.43%. For the same compound, the viability, T/C (second compound 0.03 µM, first compound 0.00316 µM) was 24%, the viability, T/C (second compound 0.03 µM, first compound 0.01 µM) was 15.2% and the viability, T/C (second compound 0.03 µM, first compound 0.0316 µM) was 10.5%. The viability, T/C (second compound 0.03 µM, first compound 0.1 µM) was 7.97%, the viability, T/C (second compound 0.03 µM, first compound 0.316 µM) was 5.26% and the viability, T/C (second compound 0.03 µM, first compound 1 µM) was 5.71%. For the same compound, the viability, T/C (second compound 0.0949 µM, first compound 0.00316 µM) was 16.1%, the viability, T/C (second compound 0.0949 µM, first compound 0.01 µM) was 11.9% and the viability, T/C (second compound 0.0949 µM, first compound 0.0316 µM) was 8.79%. For the same compound, the viability, T/C (second compound 0.0949 µM, first compound 0.1 µM) was 6.35%, the viability, T/C (second compound 0.0949 µM, first compound 0.316 µM) was 5.88% and the viability, T/C (second compound 0.0949 µM, first compound 1 µM) was 5.06%. It also gave a viability, T/C (second compound 0.3 µM, first compound 0.00316 µM) of 12.4%, a viability, T/C (second compound 0.3 µM, first compound 0.01 µM) of 9.36% and a viability, T/C (second compound 0.3 µM, first compound 0.0316 µM) of 8.61%. For the same compound, the viability, T/C (second compound 0.3 µM, first compound 0.1 µM) was 5.57%, the viability, T/C (second compound 0.3 µM, first compound 0.316 µM) was 5.66% and the viability, T/C (second compound 0.3 µM, first compound 1 µM) was 6.36%.
